Reference: patent US9751869B2, “LXR modulators” (BRISTOL-MYERS SQUIBB COMPANY, priority 2013, dated 2017)

Molecular target: T1, LXRβ (Homo sapiens, UniProt P55055)
T1 construct: Co-transfection expression plasmids, comprising full-length LXRα (pCMX-h LXRα or LXRβ (pCMX-hLXRβ)); expressed in transfected cells; host or cells: CV-1 African green monkey kidney cells, transient transfection with pCMX-hLXRβ
T1 sequence (P55055 1-460): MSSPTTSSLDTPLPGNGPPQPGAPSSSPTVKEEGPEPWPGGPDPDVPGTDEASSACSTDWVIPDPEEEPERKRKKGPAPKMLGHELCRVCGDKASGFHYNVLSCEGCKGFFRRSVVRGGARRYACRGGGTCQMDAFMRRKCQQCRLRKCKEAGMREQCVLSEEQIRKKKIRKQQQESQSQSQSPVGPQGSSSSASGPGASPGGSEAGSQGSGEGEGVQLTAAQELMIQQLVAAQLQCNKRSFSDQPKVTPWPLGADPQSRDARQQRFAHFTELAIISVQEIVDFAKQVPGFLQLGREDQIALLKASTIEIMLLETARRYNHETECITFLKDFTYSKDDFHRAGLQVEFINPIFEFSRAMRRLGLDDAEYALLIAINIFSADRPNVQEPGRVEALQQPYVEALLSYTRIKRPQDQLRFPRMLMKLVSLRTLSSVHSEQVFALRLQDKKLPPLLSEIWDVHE
T1 sequence (P19793 1-462 partner): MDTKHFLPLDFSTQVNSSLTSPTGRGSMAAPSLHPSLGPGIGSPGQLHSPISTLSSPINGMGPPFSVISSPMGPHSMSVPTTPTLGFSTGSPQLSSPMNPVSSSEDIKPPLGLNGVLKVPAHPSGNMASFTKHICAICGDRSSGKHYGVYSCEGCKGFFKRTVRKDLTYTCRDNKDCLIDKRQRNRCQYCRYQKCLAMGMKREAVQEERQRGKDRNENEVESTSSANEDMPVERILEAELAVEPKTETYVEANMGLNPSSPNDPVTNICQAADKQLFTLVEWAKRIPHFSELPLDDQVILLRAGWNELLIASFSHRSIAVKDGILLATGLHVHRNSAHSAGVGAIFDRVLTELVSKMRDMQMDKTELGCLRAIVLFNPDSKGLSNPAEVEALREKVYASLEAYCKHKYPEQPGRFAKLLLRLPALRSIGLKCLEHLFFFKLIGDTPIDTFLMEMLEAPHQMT
Experiment: LXR/LXRE co-transfection assay (luciferase reporter) in CV-1 cells, LXRβ
Assay type: cell-based
Conditions: for EC50: CV-1 cells transfected with pCMX-hLXRβ and LXREx1-Tk-Luciferase, 20 hours incubation, read-out: LXRbeta agonism EC50; for Emax / LXRbeta % EFFICACY: CV-1 cells, relative to maximum response of high control N-(3-((4-fluorophenyl)-(naphthalene-2-sulfonyl)amino)propyl)-2,2-dimethylpropionamide; for Emax: read-out: LXRbeta % EFFICACY
In short: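 CV-1 cells transiently co-transfected with full-length human LXRβ, LXRE-Tk-luciferase reporter and β-galactosidase control, then exposed to compound (≤0.5% DMSO) for 20 h at 37 °C before luminescence read. EC50 from 10-point, half-log dose curves; efficacy relative to the sulfonamide high control, means of 2–3 experiments.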

| Structure (SMILES) | EC50 [nM] | Emax [%] | LXRbeta % EFFICACY [%] |
| --- | --- | --- | --- |
| Cc1nc(-c2ccc3c(c2)OC(F)(F)O3)c(-c2cc(-c3cc(F)c(CO)c(S(C)(=O)=O)c3)ccc2-c2cc(CO)nn2C)o1 [Example 99, (5-(3-(4-(2,2-difluorobenzo[d][1,3]dioxol-5-yl)-2-methyloxazol-5-yl)-3′-fluoro-4′-(hydroxymethyl)-5′-(methylsulfonyl)-[1,1′-biphenyl]-4-yl)-1-methyl-1H-pyrazol-3-yl)methanol] | 279 | 26 |  |
| Cc1nc(-c2ccc3c(c2)OC(F)(F)O3)c(-c2cc(-c3cccc(S(C)(=O)=O)c3)ccc2-c2cc(-c3nnco3)nn2C)o1 [Example 100, 2-(5-(3-(4-(2,2-difluorobenzo[d][1,3]dioxol-5-yl)-2-methyloxazol-5-yl)-3′-(methylsulfonyl)-[1,1′-biphenyl]-4-yl)-1-methyl-1H-pyrazol-3-yl)-1,3,4-oxadiazole] | 193 | 52 |  |
| Cc1nc(-c2ccc3c(c2)OC(F)(F)O3)c(-c2cc(-c3cccc(S(C)(=O)=O)c3)ccc2-c2cc(C(C)O)nn2C)o1 (stereo not drawn) [Example 101, 1-(5-(3-(4-(2,2-difluorobenzo[d][1,3]dioxol-5-yl)-2-methyloxazol-5-yl)-3′-(methylsulfonyl)-[1,1′-biphenyl]-4-yl)-1-methyl-1H-pyrazol-3-yl)ethanol] | 79 |  | 50 |
| Cc1nc(-c2ccc3c(c2)OC(F)(F)O3)c(-c2cc(-c3cccc(S(C)(=O)=O)c3)ccc2-c2cc(C(C)O)nn2C)o1 (stereo not drawn) [Example 102] | 227 |  | 96 |
| Cc1nc(-c2ccc3c(c2)OC(F)(F)O3)c(-c2cc(-c3cc(F)c(CO)c(S(C)(=O)=O)c3)ccc2-c2cc(C(C)O)nn2C)o1 (stereo not drawn) [Example 103, 1-(5-(3-(4-(2,2-difluorobenzo[d][1,3]dioxol-5-yl)-2-methyloxazol-5-yl)-3′-fluoro-4′-(hydroxymethyl)-5′-(methylsulfonyl)-[1,1′-biphenyl]-4-yl)-1-methyl-1H-pyrazol-3-yl)ethanol] | 148 | 47 |  |
| Cc1nc(-c2ccc3c(c2)OC(F)(F)O3)c(-c2cc(-c3cc(F)c(CO)c(S(C)(=O)=O)c3)ccc2-c2cc(C(C)O)nn2C)o1 (stereo not drawn) [Example 104, 1-(5-(3-(4-(2,2-difluorobenzo[d][1,3]dioxol-5-yl)-2-methyloxazol-5-yl)-3′-fluoro-4′-(hydroxymethyl)-5′-(methylsulfonyl)-[1,1′-biphenyl]-4-yl)-1-methyl-1H-pyrazol-3-yl)ethanol] | 54 |  | 56 |
| Cc1nc(-c2ccc3c(c2)OC(F)(F)O3)c(-c2cc(-c3cc(F)c(CO)c(S(C)(=O)=O)c3)ccc2-c2cc(C(F)(F)CO)nn2C)o1 [Example 105, 2-(5-(3-(4-(2,2-difluorobenzo[d][1,3]dioxol-5-yl)-2-methyloxazol-5-yl)-3′-fluoro-4′-(hydroxymethyl)-5′-(methylsulfonyl)-[1,1′-biphenyl]-4-yl)-1-methyl-1H-pyrazol-3-yl)-2,2-difluoroethanol] | 74 | 66 |  |
| Cc1nc(-c2ccc3c(c2)OC(F)(F)O3)c(-c2cc(-c3cccc(S(C)(=O)=O)c3)ccc2-c2cc(C(F)(F)CO)nn2C)o1 [Example 106, 2-(5-(3-(4-(2,2-difluorobenzo[d][1,3]dioxol-5-yl)-2-methyloxazol-5-yl)-3′-(methylsulfonyl)-[1,1′-biphenyl]-4-yl)-1-methyl-1H-pyrazol-3-yl)-2,2-difluoroethanol] | 71 | 64 |  |
| Cc1nc(-c2ccc3c(c2)OC(F)(F)O3)c(-c2cc(-c3cccc(S(C)(=O)=O)c3)ccc2-c2cc(C(=O)NC3CC3)nn2C)o1 [Example 107, N-cyclopropyl-5-(3-(4-(2,2-difluorobenzo[d][1,3]dioxol-5-yl)-2-methyloxazol-5-yl)-3′-(methylsulfonyl)-[1,1′-biphenyl]-4-yl)-1-methyl-1H-pyrazole-3-carboxamide] | 1250 | 37 |  |
| Cc1nc(-c2ccc3c(c2)OC(F)(F)O3)c(-c2cc(-c3cc(F)c(CO)c(S(C)(=O)=O)c3)ccc2-c2cc(C(=O)NC3CC3)nn2C)o1 [Example 108, N-cyclopropyl-5-(3-(4-(2,2-difluorobenzo[d][1,3]dioxol-5-yl)-2-methyloxazol-5-yl)-3′-fluoro-4′-(hydroxymethyl)-5′-(methylsulfonyl)-[1,1′-biphenyl]-4-yl)-1-methyl-1H-pyrazole-3-carboxamide] | 529 | 30 |  |
| Cc1nc(-c2ccc3c(c2)OC(F)(F)O3)c(-c2cc(-c3cccc(S(C)(=O)=O)c3)ccc2-c2cc(C(=O)NCC3CC3)nn2C)o1 [Example 109, N-(cyclopropylmethyl)-5-(3-(4-(2,2-difluorobenzo[d][1,3]dioxol-5-yl)-2-methyloxazol-5-yl)-3′-(methylsulfonyl)-[1,1′-biphenyl]-4-yl)-1-methyl-1H-pyrazole-3-carboxamide] | 356 | 52 |  |
| Cc1nc(-c2ccc3c(c2)OC(F)(F)O3)c(-c2cc(-c3cc(F)c(CO)c(S(C)(=O)=O)c3)ccc2-c2cc(C(=O)NCC3CC3)nn2C)o1 [Example 110, N-(cyclopropylmethyl)-5-(3-(4-(2,2-difluorobenzo[d][1,3]dioxol-5-yl)-2-methyloxazol-5-yl)-3′-fluoro-4′-(hydroxymethyl)-5′-(methylsulfonyl)-[1,1′-biphenyl]-4-yl)-1-methyl-1H-pyrazole-3-carboxamide] | 244 | 55 |  |
| Cc1nc(-c2ccc3c(c2)OC(F)(F)O3)c(-c2cc(-c3cccc(S(C)(=O)=O)c3)ccc2-c2cc(C(=O)NCC(F)(F)F)nn2C)o1 [Example 111, 5-(3-(4-(2,2-difluorobenzo[d][1,3]dioxol-5-yl)-2-methyloxazol-5-yl)-3′-(methylsulfonyl)-[1,1′-biphenyl]-4-yl)-1-methyl-N-(2,2,2-trifluoroethyl)-1H-pyrazole-3-carboxamide] | 284 | 51 |  |
| Cc1nc(-c2ccc3c(c2)OC(F)(F)O3)c(-c2cc(-c3cc(F)c(CO)c(S(C)(=O)=O)c3)ccc2-c2cc(C(=O)NCC(F)(F)F)nn2C)o1 [Example 112, 5-(3-(4-(2,2-difluorobenzo[d][1,3]dioxol-5-yl)-2-methyloxazol-5-yl)-3′-fluoro-4′-(hydroxymethyl)-5′-(methylsulfonyl)-[1,1′-biphenyl]-4-yl)-1-methyl-N-(2,2,2-trifluoroethyl)-1H-pyrazole-3-carboxamide] | 257 | 33 |  |
| Cc1nc(-c2ccc3c(c2)OC(F)(F)O3)c(-c2cc(-c3cccc(S(C)(=O)=O)c3)ccc2-c2cc(C(=O)NC(C)(C)C)nn2C)o1 [Example 113, N-(tert-butyl)-5-(3-(4-(2,2-difluorobenzo[d][1,3]dioxol-5-yl)-2-methyloxazol-5-yl)-3′-(methylsulfonyl)-[1,1′-biphenyl]-4-yl)-1-methyl-1H-pyrazole-3-carboxamide] | 344 | 37 |  |
| Cc1nc(-c2ccc3c(c2)OC(F)(F)O3)c(-c2cc(-c3cc(F)c(CO)c(S(C)(=O)=O)c3)ccc2-c2cc(C(=O)NC(C)(C)C)nn2C)o1 [Example 114, N-(tert-butyl)-5-(3-(4-(2,2-difluorobenzo[d][1,3]dioxol-5-yl)-2-methyloxazol-5-yl)-3′-fluoro-4′-(hydroxymethyl)-5′-(methylsulfonyl)-[1,1′-biphenyl]-4-yl)-1-methyl-1H-pyrazole-3-carboxamide] | 273 | 28 |  |
| Cc1nc(-c2ccc3c(c2)OC(F)(F)O3)c(-c2cc(-c3cc(F)c(CO)c(S(C)(=O)=O)c3)ccc2-c2cc(C(C)C#N)nn2C)o1 (stereo not drawn) [Example 115, 2-(5-(3-(4-(2,2-difluorobenzo[d][1,3]dioxol-5-yl)-2-methyloxazol-5-yl)-3′-fluoro-4′-(hydroxymethyl)-5′-(methylsulfonyl)-[1,1′-biphenyl]-4-yl)-1-methyl-1H-pyrazol-3-yl)propanenitrile] | 19 | 62 |  |
| Cc1nc(-c2ccc3c(c2)OC(F)(F)O3)c(-c2cc(-c3cccc(S(C)(=O)=O)c3)ccc2-c2cc(C(C)C#N)nn2C)o1 (stereo not drawn) [Example 116, 2-(5-(3-(4-(2,2-difluorobenzo[d][1,3]dioxol-5-yl)-2-methyloxazol-5-yl)-3′-(methylsulfonyl)-[1,1′-biphenyl]-4-yl)-1-methyl-1H-pyrazol-3-yl)propanenitrile] | 26 |  | 99 |
